The nature of data set [1]: Serum stability assay. The data set is classed as in vitro ADME. The settings on record: radiolabeled peptide 5 MBq in 500 µL human serum (Sigma Aldrich, H4522), 37°C, aliquots by radio-HPLC. On the procedure:
(§1) Radio-HPLC was performed on an Agilent 1100 HPLC system equipped with a radioactivity detector (GABI Star, Raytest GmbH, Straubenhardt, Germany) using a Chromolith Performance RP-18e column (100×3 mm; Merck AG Darmstadt, Germany) eluted with a linear gradient (eluent A: 0.1% TFA in water; eluent B: 0.1% TFA in acetonitrile; 0–30% B in 10 min, flow rate: 2 mL/min).
Metabolic stability was investigated in human serum (Sigma Aldrich, H4522). 5 MBq of radiolabeled peptide was dissolved in human serum (500 µL) and incubated at 37°C. The stability of the labeled peptide was monitored by analyzing aliquots (25 µl) via radio-HPLC at selected time points.

The subject of data set [2] is CA IX positive human renal cell carcinoma SKRC 52 cells. The data set is described as follows: In vitro binding of 125I-labeled peptides on SKRC 52 cells. The note with it: for binding capacity on SKRC 52 cells compared to the native CaIX-P1 peptide: 125I-labeled fragments, result in words; for binding after 10 minutes compared to 30 minutes incubation: 125I-labeled peptides. On the procedure:
(§2) For binding experiments 5×10^5 SKRC 52 or BxPC3 cells were seeded into 6-well plates and cultivated in 3 mL of incubation medium at 37°C for 24 h. After cell blocking with RPMI 1640 (without FCS) containing 1% BSA, the medium was replaced with 1 mL of fresh medium (without FCS) containing 0.8–1.2×10^6 cpm of ^125I-labeled peptide and incubation was performed for time periods varying from 10 min to 2 h at 37°C. To determine specific versus nonspecific binding, the cells were incubated with unlabeled competitors at concentrations varying from 10^−4 to 10^−10 mol/L. Octreotide was used as negative control competitor. After incubation the medium was removed and the cells were washed three times with 1 mL ice cold PBS in order to remove the unbound radiolabeled peptide. Subsequently, the cells were lysed with 0.5 mL NaOH 0.3 mol/L and the radioactivity was measured with a γ-counter. Bound radioactivity was calculated as percentage applied dose per 10^6 cells. CA IX negative BxPC3 cells were used as negative control.

In data set [3] the test system is BxPC3 cells. In words: In vitro (medium) stability of 125I-labeled peptide on BxPC3 cells. The settings on record: 37°C, 10 min to 2 h, supernatant by radio-HPLC. The data set is classed as in vitro ADME, human. As to the method: as §1
(§3) ^125I-labeled peptide was incubated at 37°C on SKRC 52 and BxPC3 cells. At time points varying from 10 min to 2 h aliquots were taken and centrifuged for 5 min at 13,000 rpm. The supernatant was analyzed by HPLC with H2O∶CH3CN, 0–30% in 10 min.

Data set [4] relates to SKRC 52 cells. The data set is classed as binding, human. The settings on record: for inhibition of the radioligand binding: 10^−4 mol/L competitor concentration; for inhibition of the radioligand binding / binding inhibition: 125I-CaIX-P1-4-10 on SKRC 52 cells; for binding inhibition: competitor concentration of 10^−5 mol/L. On the procedure: as §2
Data set [5] relates to SKRC 52 cells. The data set is described as follows: In vitro (medium) stability of 125I-labeled peptide on SKRC 52 cells. The data set is classed as in vitro ADME, human. As to the method: as §1, §3
The nature of data set [6]: in vivo. More on the design: species or system Balb/c nu/nu mice. The settings on record: female, Balb/c nu/nu, mouse, iv, 1 MBq, total radioactivity, Tumor to organ ratio. On the procedure:
Organ distribution studies were performed in 9-week-old female Balb/c nu/nu mice, carrying subcutaneously transplanted SKRC 52 tumors. Animals were obtained from Charles River WIGA and housed in VentiRacks (BioZone Global). For tumor transplantation, SKRC 52 cells were grown to 90% confluence, harvested with PBS/ethylene diamine tetraacetic acid, resuspended in Falcon Matrigel-Matrix (BD) and kept on ice. 200 µl of Matrigel-Matrix cell suspension were injected subcutaneously into the anterior region of the mouse trunk and the tumors were grown to a size of 1.0 cm^3. ^131I-labeled CaIX-P1-4-10 was injected into the tail vein of the animals (approximately 1 MBq) and at 15 min, 60 min and 240 min after injection the animals were sacrificed. Tumor, blood and selected tissues (heart, spleen, liver, kidney, muscle, intestinum and brain) were removed, drained of blood, weighed and the radioactivity was measured in a γ-counter (LB 951G; Berthold Technologies). Also 3 aliquots of the tracer solution used for injection were measured. The organ uptake was calculated as percentage injected dose per gram tissue (% ID/g).

Where two headings read alike, the source gives them in different places. Peptide text beside a SMILES is read from it.

A word on the IC50: it is the concentration needed to halve the response being measured. `CC(C)C[C@H](NC(=O)[C@@H]1CCCN1C(=O)[C@@H](NC(=O)[C@H](Cc1c[nH]cn1)NC(=O)[C@@H](N)CC(N)=O)C(C)C)C(=O)N[C@@H](CO)C(=O)N1CCC[C@H]1C(=O)N[C@H](Cc1ccc(O)cc1)C(N)=O` [CaIX-P1-4-10] (HELM PEPTIDE1{N.H.V.P.L.S.P.[dY].[am]}$$$$V2.0; N-terminus assumed) returned a Serum half life in data set [1] of 1.5 h. Moreover, the “binding capacity on SKRC 52 cells compared to the native CaIX-P1 peptide” value in data set [2] is listed as “almost six-fold binding”. In data set [3], the “radioligand degradation in medium on BxPC3 cells” value is given as “No radioligand degradation”. Also, in data set [4], the “inhibition of the radioligand binding” value is given as “over 95%” and the binding inhibition entry is on record as “about 95%”. Also, the IC50 in data set [4] (24 h) worked out at 130 nM. Besides, the “degradation in medium at 120 min” value in data set [5] (125I-labeled peptide on SKRC 52 cells, 37°C, 120 min incubation, supernatant by radio-HPLC) is “completely degraded”. Moreover, the “activity (intact radioligand) measured in medium” value in data set [5] (125I-labeled peptide on SKRC 52 cells, 37°C, after 60 min incubation, supernatant by radio-HPLC) came out at 30%. The “degradation site in the sequence” value in data set [5] (comparison of HPLC chromatograms of C-terminal fragments with SKRC 52 cell medium supernatants) is “degraded between ^6S and ^7P”.
As to `CC(C)C[C@H](NC(=O)[C@@H]1CCCN1C(=O)[C@@H](NC(=O)[C@H](Cc1c[nH]cn1)NC(=O)[C@@H](N)CC(N)=O)C(C)C)C(=O)N[C@@H](CO)C(=O)N1CCC[C@H]1C(=O)N[C@H](Cc1ccc(O)c(I)c1)C(N)=O` [^131I-CaIX-P1-4-10] (HELM PEPTIDE1{N.H.V.P.L.S.P.[O=C([C@@H](Cc1ccc(O)c(I)c1)N[*:1])[*:2]].[am]}$$$$V2.0; N-terminus assumed), the tissue to tissue ratio at 0.25 h was 0.63 in data set [6] (Blood); 13.9 in data set [6] (Brain); 1.63 in data set [6] (Heart); 0.56 in data set [6] (Kidney); 1.32 in data set [6] (Liver); 0.86 in data set [6] (Lung). The tissue to tissue ratio at 0.25 h amounted to 3.36 in data set [6] (Muscle) and 1.06 in data set [6] (Spleen). Besides, the tissue to tissue ratio at 1 h is 0.69 in data set [6] (Blood); 14.9 in data set [6] (Brain); 2.09 in data set [6] (Heart); 0.73 in data set [6] (Kidney); 1.65 in data set [6] (Liver); 0.88 in data set [6] (Lung). Besides, the tissue to tissue ratio at 1 h in data set [6] (Muscle) worked out at 3.39; in data set [6] (Spleen), 1.39. Moreover, the tissue to tissue ratio at 4 h was 0.67 in data set [6] (Blood); 15.1 in data set [6] (Brain); 1.84 in data set [6] (Heart); 0.61 in data set [6] (Kidney); 1.49 in data set [6] (Liver); 0.92 in data set [6] (Lung). The values for the tissue to tissue ratio at 4 h in data set [6] (Muscle) and in data set [6] (Spleen) were 2.53 and 1.35, respectively.
As to HVPLSPKy [CaIX-P1-5-12], the “binding capacity on SKRC 52 cells compared to the native CaIX-P1 peptide” value in data set [2] is recorded as “significantly reduced binding activity”.
In the case of “TNHVPLSPy [CaIX-P1-3-10, fragment representing the middle part of CaIX-P1 (TNHVPLSPy)]”, in data set [2], the “binding capacity on SKRC 52 cells compared to the native CaIX-P1 peptide” value was “up to five-fold higher binding capacity” and the “binding after 10 minutes compared to 30 minutes incubation” value is on record as “higher after 10 minutes as compared to 30 minutes incubation”.
As to “YNTNHVPL [CaIX-P1-1-8, 8-amino acid fragment of CaIX-P1 (YNTNHVPL)]”, in data set [2], the “binding capacity on SKRC 52 cells compared to the native CaIX-P1 peptide” value was “significantly reduced binding activity”.
Regarding YNTNHVPLSPKY [CaIX-P1], the “binding after 10 minutes compared to 30 minutes incubation” value in data set [2] is on record as “higher after 10 minutes as compared to 30 minutes incubation”. For the same molecule, in data set [4], the “inhibition of the radioligand binding” value is reported as “over 95%” and the binding inhibition entry was “about 80%”. The IC50 in data set [4] (unlabeled competitor against 125I-CaIX-P1-4-10 on SKRC 52 cells, read-out: IC50) was found to be 1500 nM.

(Values after paper PMC3365038, “Optimization of a Novel Peptide Ligand Targeting Human Carbonic Anhydrase IX” (PLoS ONE, 2012).)
